Measurements: patent US12180223B2 (Boehringer Ingelheim International GmbH, priority 2021, dated 2024)
pIC50: −log10 of the molar value.

Key:
[1] = Assay B: Microsomal clearance; assay type: in vitro ADME, human; conditions: compounds of the invention; pooled liver microsomes 1 mg/ml, test compound 1 μM, NADPH, 37° C.
Description: Evaluation of Microsomal Clearance Assay B: Microsomal Clearance:
The metabolic degradation of the test compound is assayed at 37° C. with pooled liver microsomes. The final incubation volume of 100 μl per time point contains TRIS buffer pH 7.6 at RT (0.1 M), magnesium chloride (5 mM), microsomal protein (1 mg/ml) and the test compound at a final concentration of 1 μM.
Following a short preincubation period at 37° C., the reactions are initiated by addition of beta-nicotinamide adenine dinucleotide phosphate, reduced form (NADPH, 1 mM) and terminated by transferring an aliquot into solvent after different time points (0, 5, 15, 30, 60 min). Additionally, the NADPH-independent degradation is monitored in incubations without NADPH, terminated at the last time point. The [%] remaining test compound after NADPH independent incubation is reflected by the parameter c(control) (metabolic stability). The quenched incubations are pelleted by centrifugation (10000 g, 5 min). An aliquot of the supernatant is assayed by LC-MS/MS for the amount of parent compound. The half-life (t½ INVITRO) is determined by the slope of the semilogarithmic plot of the concentration-time profile.

human TRPA1 ion channel = biological target: T1, human TRPA1 ion channel (Homo sapiens, UniProt O75762); experiment: Assay A: TRPA1 assay (FLIPR calcium, AITC agonism, HEK293 over-expressing human TRPA1); assay type: cell-based; conditions: read-out: hTRPA1 IC50
T1 construct: host or cells: HEK293
Description: A human HEK293 cell line over-expressing the human TRPA1 ion channel (Perkin Elmer, Product No. AX-004-PCL) is used as a test system for compound efficacy and potency. Compound activity is determined by measuring the effect of compounds on intracellular calcium concentration induced by AITC (Allylisothiocyanate) agonism in a FLIPRtetra system (Molecular Devices).
The cells are obtained as frozen cells in cryo-vials and stored until use at −150° C. Cells are grown in culture medium (MEM/EBSS medium with 10% FCS and 0.4 mg/ML Geneticin). […] For sub-culturing cells are detached from flasks by Versene. At the day before the assay, cells are detached, washed twice with medium (MEM/EBSS medium with 10% FCS) and 20000 cells in 20 μl/well are seeded to Poly D-Lysin biocoated 384-well plates (black, clear bottom, Cat. 356697) from Corning. Plates are incubated for 24 hours at 37° C./5% CO2 before use in the assay.
The test compounds are dissolved in 100% DMSO at a concentration of 10 mM and in a first step diluted in DMSO to a concentration of 5 mM, followed by serial dilution steps in 100% DMSO. Dilution factor and number of dilution steps may vary according to needs. Typically 8 different concentrations by 1:5 dilutions are prepared, further intermediate dilutions (1:20) of the substances are carried out with HBSS/HEPES buffer (1×HEPES, Cat. 14065 from Gibco, 20 mM HEPES, Cat. 83264 from SIGMA, 0.1% BSA Cat. 11926 from Invitrogen, pH 7.4
At the assay day cells are washed 3× with assay puffer, 20 μL buffer remaining in the wells after washing. 10 μL Ca6 kit (Cat. R8191 MolecularDevices) loading buffer in HBSS/HEPES is added to the cells and the plates are incubated with lid for 120 minutes at 37°/5% CO2. 10 μL of compound or controls in HBSS/HEPES buffer/5% DMSO from the intermediate dilution plate are carefully added to the wells. […] Finally 10 μL of the agonist AITC 50 μM dissolved in HBSS/HEPES buffer/0.05% DMSO (final concentration 10 μM) is added to the wells followed by an additional read on the FLIPRtetra device for 10 minutes. The area under the signal curve (AUC) after AITC addition is used for IC50/% inhibition calculations
Data Evaluation and Calculation:
Each assay microtiter plate contains wells with vehicle (1% DMSO) controls instead of compound as controls for AITC induced luminescence (100% CTL; high controls) and wells with vehicle controls without AITC as controls for non-specific changes in luminescence (0% CTL; low controls).
The analysis of the data is performed by the calculation of the area under signal curve of the individual wells. Based on this values the % value for the measurement of each substance concentration is calculated (AUC(sample)−AUC(low))*100/(AUC(high)−AUC(low)) using MegaLab software (in house development). The IC50 values are calculated from the % control values using MegaLab software. Calculation: [y=(a−d)/(1+(x/c)^b)+d], a=low value, d=high value; x=conc M; c=IC50 M; b=hill; y=% ctrl

[2] = Assay C: Hepatocyte clearance; assay type: in vitro ADME, human; conditions: compounds of the invention; hepatocyte suspension, 5% species serum, test compound 1 μM, six hours
Description: Evaluation of Hepatocyte Clearance Assay C: Hepatocyte Clearance
The metabolic degradation of the test compound is assayed in a hepatocyte suspension. Hepatocytes (cryopreserved) are incubated in Dulbecco's modified eagle medium (supplemented with 3.5 μg glucagon/500 mL, 2.5 mg insulin/500 mL and 3.75 mg/500 mL hydrocortisone) containing 5% species serum.
The cells are incubated for six hours (incubator, orbital shaker) and samples (25 μl) are taken at 0, 0.5, 1, 2, 4 and 6 hours. Samples are transferred into acetonitrile and pelleted by centrifugation (5 min). The supernatant is transferred to a new 96-deepwell plate, evaporated under nitrogen and resuspended.
Decline of parent compound is analyzed by HPLC-MS/MS
CLint is calculated as follows CL_[…]=Dose/AUC=(C0/CD)/(AUD+clast/k)×1000/60. C0: initial concentration in the incubation [μM], CD: cell density of vital cells [10e6 cells/mL], AUD: area under the data [μM×h], clast: concentration of last data point [μM], k: slope of the regression line for parent decline [h−1].
The calculated in vitro hepatic intrinsic clearance can be scaled up to the intrinsic in vivo hepatic Clearance and used to predict hepatic in vivo blood clearance (CL) by the use of a liver model (well stirred model).

T1 sequence (O75762 whole entry): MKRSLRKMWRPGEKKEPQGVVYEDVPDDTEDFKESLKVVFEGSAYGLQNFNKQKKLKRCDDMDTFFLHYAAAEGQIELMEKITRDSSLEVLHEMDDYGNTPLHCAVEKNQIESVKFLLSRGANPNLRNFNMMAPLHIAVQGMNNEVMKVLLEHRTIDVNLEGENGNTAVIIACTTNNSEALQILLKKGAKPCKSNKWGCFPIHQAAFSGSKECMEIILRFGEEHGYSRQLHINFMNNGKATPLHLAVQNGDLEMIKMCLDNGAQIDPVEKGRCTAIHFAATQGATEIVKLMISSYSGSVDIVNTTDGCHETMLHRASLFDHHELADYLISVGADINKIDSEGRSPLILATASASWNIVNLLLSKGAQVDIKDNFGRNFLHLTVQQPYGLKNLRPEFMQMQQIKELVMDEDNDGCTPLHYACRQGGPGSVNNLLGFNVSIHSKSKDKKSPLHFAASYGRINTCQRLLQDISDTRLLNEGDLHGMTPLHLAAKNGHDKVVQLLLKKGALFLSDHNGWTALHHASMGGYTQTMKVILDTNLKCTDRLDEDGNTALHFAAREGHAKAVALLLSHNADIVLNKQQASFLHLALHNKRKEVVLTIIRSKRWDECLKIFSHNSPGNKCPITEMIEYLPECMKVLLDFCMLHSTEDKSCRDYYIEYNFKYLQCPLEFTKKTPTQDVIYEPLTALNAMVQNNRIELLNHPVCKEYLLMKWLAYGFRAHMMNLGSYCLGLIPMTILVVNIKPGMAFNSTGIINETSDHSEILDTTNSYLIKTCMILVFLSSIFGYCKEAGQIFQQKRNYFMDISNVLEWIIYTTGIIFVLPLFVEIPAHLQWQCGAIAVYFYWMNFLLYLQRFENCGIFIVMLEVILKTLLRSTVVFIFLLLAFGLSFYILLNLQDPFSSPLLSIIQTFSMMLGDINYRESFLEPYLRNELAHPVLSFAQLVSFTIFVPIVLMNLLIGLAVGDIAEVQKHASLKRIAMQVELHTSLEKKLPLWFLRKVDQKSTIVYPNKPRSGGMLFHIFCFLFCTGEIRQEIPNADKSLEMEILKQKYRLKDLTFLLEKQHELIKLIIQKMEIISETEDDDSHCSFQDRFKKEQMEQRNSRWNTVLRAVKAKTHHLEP

| Compound | human LM [1] [% Qh] | pIC50 (human TRPA1 ion channel) | human Hepatocytes [2] [% Qh] |
| --- | --- | --- | --- |
| NC(=O)c1csc2ncn(Cc3nc(C[C@H](O)c4ccc(Cl)cc4)no3)c(=O)c12 [Example 1, 3-({3-[(2S)-2-(4-chlorophenyl)-2-hydroxyethyl]-1,2,4-oxadiazol-5-yl}methyl)-4-oxo-3H,4H-thieno[2,3-d]pyrimidine-5-carboxamide] | <23 | 7.54 | 22 |
| NC(=O)c1csc2ncn(Cc3nc(C[C@H](O)c4cc5ccc(F)cc5s4)no3)c(=O)c12 [Example 2] | 43 | 8.15 | 36 |
| NC(=O)c1csc2ncn(Cc3nc(C[C@H](O)c4cc5ccccc5s4)no3)c(=O)c12 [Example 3] | 39 | 8.05 |  |
| NC(=O)c1csc2ncn(Cc3nc(C[C@H](O)c4cc5cc(Cl)ccc5o4)no3)c(=O)c12 [Example 4] | 34 | 8.05 | 34 |
| NC(=O)c1csc2ncn(Cc3nc(C[C@H](O)c4ccc(I)cc4)no3)c(=O)c12 [Example 5] | <23 | 7.92 | 24 |
| NC(=O)c1csc2ncn(Cc3nc(C[C@H](O)c4cc5cc(F)ccc5o4)no3)c(=O)c12 [Example 6] | 23 | 7.92 | 22 |
| Cc1ccc([C@@H](O)Cc2noc(Cn3cnc4scc(C(N)=O)c4c3=O)n2)cc1 [Example 7] |  | 7.66 | 26 |
| NC(=O)c1csc2ncn(Cc3nc(C[C@H](O)c4ccc(F)cc4)no3)c(=O)c12 [Example 8] | <23 | 7.24 | 13 |
| NC(=O)c1csc2ncn(Cc3nc(C[C@H](O)c4ccc(Cl)s4)no3)c(=O)c12 [Example 9] | 27 | 7.11 | 61 |
| COc1ccc([C@@H](O)Cc2noc(Cn3cnc4scc(C(N)=O)c4c3=O)n2)cc1 [Example 10] | <23 | 7.06 | 19 |
